PubChem BioAssay AID1259371 (The Scripps Research Institute Molecular Screening Center, 2018)
Activity calls are given as the source filed them. How the calls were made is not given here.

Biological target: Microphthalmia-associated transcription factor (Homo sapiens) (UniProt O75030)
Test: MITF inhibitors, potency by titration, dose response, biochemical, AlphaScreen, human (AID 1259371)
Settings: AlphaScreen biochemical MITF assay, signal inhibition

Microphthalmia-associated transcription factor (Homo sapiens), sequence (O75030 whole entry, looked up): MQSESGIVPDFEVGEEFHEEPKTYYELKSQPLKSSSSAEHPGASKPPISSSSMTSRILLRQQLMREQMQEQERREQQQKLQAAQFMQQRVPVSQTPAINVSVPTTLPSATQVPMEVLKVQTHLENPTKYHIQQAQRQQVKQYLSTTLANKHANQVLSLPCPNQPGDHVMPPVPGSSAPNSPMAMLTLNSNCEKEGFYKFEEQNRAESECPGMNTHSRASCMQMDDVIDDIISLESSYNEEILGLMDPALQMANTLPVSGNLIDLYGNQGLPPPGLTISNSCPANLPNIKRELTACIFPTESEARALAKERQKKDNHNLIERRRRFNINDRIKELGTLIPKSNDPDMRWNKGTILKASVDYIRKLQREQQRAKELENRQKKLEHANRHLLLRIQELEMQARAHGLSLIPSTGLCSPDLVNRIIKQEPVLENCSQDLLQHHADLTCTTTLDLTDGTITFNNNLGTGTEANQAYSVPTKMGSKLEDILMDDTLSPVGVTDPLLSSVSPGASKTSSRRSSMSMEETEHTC

Compound | IC50
O=c1c2ccccc2nc(-c2ccccc2)n1-c1ccccc1O | > 6500 nM (inactive)
O=C(O)C1CC=CCC1C(=O)Nc1nncs1 (stereo not drawn) | inactive
CC1CCC(N2CCN(Cc3ccco3)CC2)CC1 (stereo not drawn) | inactive
CC(=O)Oc1cc(C(=O)OCC(=O)Nc2ccc(C)cc2)cc(OC(C)=O)c1OC(C)=O | inactive
NC(=O)c1ccc(-c2cccs2)s1 | > 7320 nM (inactive)
CCOc1cccc(OCC)c2c(C)nc(C)c1-2 | 207 nM
O=C(NC1CCN(Cc2ccccc2)CC1)c1ccc2nc(-c3cccs3)sc2c1 | > 6380 nM (inactive)
O=C1N[C@@H](COCc2ccccc2)C(=O)N2CCN(C(=O)NCc3ccccc3)C[C@H]12 | inactive
Cn1cc(-c2nc(Nc3ccc(-n4cnc(N5CCOCC5)n4)cc3)ncc2Br)cn1 | inactive
COc1ccc2c(c1)CC(C(=O)Nc1ccc(-c3cn[nH]c3)cc1OCc1ccccc1)CO2 (stereo not drawn) | inactive
Cc1ccc(NC(=O)COC(=O)CCC(=O)Nc2sc3c(c2C(N)=O)CCC3)cc1F | inactive
CC(=O)Oc1ccccc1N1C(=O)c2ccc(Oc3cccc(N)c3)cc2C1=O | 479 nM
CCCCOc1ccc(C(=O)N/C(=C/c2ccco2)C(=O)O)cc1 | inactive
Cc1cc(C)n2nc(N)c(N)c2n1 | > 11600 nM (inactive)
COc1ccc(OC)c(CN2CCN(Cc3ccc(F)cc3)CC2)c1 | > 6110 nM (inactive)
C=CCNCCOCCOc1ccc(OCC)cc1 | > 6480 nM (inactive)
Cc1c(NC(=O)C(C)OC(=O)c2cc3c(s2)CCC3)c(=O)n(-c2ccccc2)n1C (stereo not drawn) | 953 nM
CC(C)[C@H]1NC(=O)[C@H]2CN(C(=O)NC3CCCCC3)CCN2C1=O | inactive
COc1cc(OC)c(OC)cc1CN1CCN(Cc2ccc(C)cc2)CC1 | > 5760 nM (inactive)
O=c1[nH]cc(N=Cc2ccc([N+](=O)[O-])o2)c(=O)[nH]1 | 7 nM
O=C(Nc1ccc(-c2ccncc2)c(C(F)(F)F)c1)C1COc2ccccc2O1 (stereo not drawn) | inactive
Cc1ccc(N2C(=O)C3C(C2=O)C2(CO)C=CC3(C)O2)cc1[N+](=O)[O-] (stereo not drawn) | > 6480 nM (inactive)
O=C(COC(=O)/C=C/c1ccco1)COC(=O)/C=C/c1ccco1 | 122 nM
C[C@H]1C(=O)N2CCN(C(=O)NC3CCCCC3)C[C@@H]2C(=O)N1C | inactive
O=C(O)c1cccc(N2C(=O)CC(Nc3ccc(N4CCOCC4)cc3)C2=O)c1 (stereo not drawn) | 242 nM
Cc1cc(C)n(C(=O)/C=C/c2ccco2)n1 | 817 nM

Compound | IC50
c1cc2c(cc1CNc1nc(Nc3ccc(N4CCOCC4)cc3)c3ncn(C4CCCCC4)c3n1)OCO2 | inactive
O=C(CCc1ccco1)Nc1ccc(-c2cn3c4c(nnc3n2)CCCC4)cc1 | 32 nM
Oc1ccc2c(c1)C1CCCC1(N1CCOCC1)O2 (stereo not drawn) | inactive
COc1cccc(CC(=O)Nc2nnc(-c3ccco3)c(-c3ccco3)n2)c1 | 113 nM
Cc1ccc(N2C(=O)c3ccccc3NC2c2cccc([N+](=O)[O-])c2)cc1 (stereo not drawn) | > 5150 nM (inactive)
COc1ccc(C)cc1NS(=O)(=O)c1ccc2c(c1)CCC(=O)N2 | inactive
CCN1CCc2c(sc(NC(=S)NC(=O)/C=C/c3ccco3)c2C(N)=O)C1 | 726 nM
C/C(N)=C(/C#N)C(=O)COC(=O)c1c2c(nc3ccccc13)/C(=C/c1ccco1)CC2 | 443 nM
CC(O)C(=O)N/N=C/C=C/c1ccc([N+](=O)[O-])o1 (stereo not drawn) | inactive
O=[N+]([O-])c1ccc(Br)c2c1no[n+]2[O-] | inactive
O=C(CSc1nsc(SCC(=O)Nc2ccc(Cl)c(Cl)c2)n1)Nc1ccc(Cl)c(Cl)c1 | inactive
O=C(NC1CCCCC1)N1CCN2C(=O)[C@@H]3C[C@@H](O)CN3C(=O)[C@H]2C1 | inactive
O=C(O)c1cc([N+](=O)[O-])cc2c1-c1c(cc([N+](=O)[O-])cc1[N+](=O)[O-])/C2=C/c1ccco1 | inactive
CNC(=O)COc1cc(-c2cn[nH]c2)ccc1NC(=O)C1COc2ccc(OC)cc2C1 (stereo not drawn) | inactive
CCOc1cc(-c2ccc(I)o2)cc(=O)c2c(C)oc(C)c12 | 2.55 nM
Cc1noc(C2CN(C(=O)c3ccc(-n4cccc4)cc3)C2)n1 | inactive
O=C(NCC(O)C(=O)N1CCOCC1)c1cccc(Nc2ccc3[nH]ncc3c2)n1 (stereo not drawn) | inactive
O=C(/C=C/c1ccco1)Nc1cccc(NC(=O)/C=C/c2ccco2)n1 | 10.4 nM
COc1ccc(CCNC(=O)CN2CCN(Cc3nc(-c4ccco4)cs3)CC2)cc1OC | inactive
CCS(=O)(=O)NCC(c1cccs1)S(=O)(=O)c1ccc(C)cc1 (stereo not drawn) | 804 nM
CN1C(=O)[C@H]2CN(C(=O)NCc3ccccc3)CCN2C(=O)[C@@H]1Cc1ccccc1 | inactive
COc1cc(N2CCOCC2)ccc1Nc1cc(NC(C)(C)c2ccccc2)c(C(F)(F)F)cn1 | inactive
CN(C)CCS(=O)c1cc(-c2cn[nH]c2)ccc1NC(=O)[C@@H]1Cc2cc(F)ccc2CN1 (stereo partly drawn) | inactive
Cc1oc(C(=O)O)cc1CSCCSCc1cc(C(=O)O)oc1C | > 2160 nM (inactive)
CCCCNCCOc1ccccc1OCC | > 6480 nM (inactive)
CN(C)C(=O)N1CCN(S(=O)(=O)c2cccc([N+](=O)[O-])c2)CC1 | > 6480 nM (inactive)

Compound | IC50
N#C/C(=C(/O)COC(=O)c1cc2c(s1)CCC2)c1nc2ccccc2[nH]1 | 693 nM
O=C(/C=C/c1ccco1)Nc1c[nH]c(=O)[nH]c1=O | inactive
O=C(O)CCN(CCC(=O)O)c1ccc(O)cc1 | 138 nM
O=C(O)c1cc(-n2cccc2)ccc1Cl | 268 nM
COc1ccccc1C1(NC(=O)CCCCC2SCC3NC(=O)NC32)CCCC1 (stereo not drawn) | inactive
CN1CC(=O)N2CCN(C(=O)NC3CCCCC3)C[C@@H]2C1=O | inactive
Cc1cc2ncn(Cc3noc(-c4ccco4)n3)c2cc1C | > 6480 nM (inactive)
N#CC(C#N)=C(N)/C(C#N)=C/c1ccc([N+](=O)[O-])o1 | 467 nM
O=C1N[C@H](Cc2ccccc2)C(=O)N2CCN(C(=O)NC3CCCCC3)C[C@H]12 | 873 nM
CN(Cc1ccco1)S(=O)(=O)c1ccc2[nH]cc(C(=O)O)c(=O)c2c1 | inactive
Cc1ccn2c(NCC3CCCO3)c(-c3ccc(O)cc3O)nc2c1 (stereo not drawn) | 80.9 nM
O=C(OC1CCOC1=O)c1ccc(S(=O)(=O)NCc2ccco2)cc1 (stereo not drawn) | > 2370 nM (inactive)
CCOC(=O)C1C2NC(=S)N(c3cccc(Cl)c3)C1(C)Oc1c(OC)cccc12 (stereo not drawn) | > 5090 nM (inactive)
CC(C)NC(=O)c1cccc(NC(=O)Nc2ccc(-c3ncnc4[nH]cc(Cl)c34)cc2)c1 | 676 nM
COc1cc(OC)c(CN2CCCC(O)C2)cc1Br (stereo not drawn) | > 6480 nM (inactive)
Cc1cc(C)nc(NS(=O)(=O)c2ccc(N3C(=O)C=CC3=O)cc2)n1 | > 2160 nM (inactive)
O=C1c2ccc([N+](=O)[O-])cc2C(=O)N1c1cc(Br)c(O)c(Br)c1 | 162 nM
O=C(CN1C(=O)NC2(CCCCCC2)C1=O)NC(=O)NCc1ccco1 | inactive
CC(C)C[C@H]1C(=O)N2CCN(C(=O)NC3CCCCC3)C[C@@H]2C(=O)N1C | > 2160 nM (inactive)
CCC12c3ccccc3C(c3ccccc31)C1C(=O)NC(=O)C12 (stereo not drawn) | > 2160 nM (inactive)
Nc1ccc(O)c(C(=O)O)c1 | 18.7 nM
c1coc(CNc2ccc3ncc(-c4ccco4)n3n2)c1 | inactive
O=C1N[C@H](Cc2ccc(O)cc2)C(=O)N2CCN(C(=O)NCc3ccccc3)C[C@H]12 | inactive
c1ccc2c(c1)OCC(c1nc3c(-c4ccncc4)cncc3[nH]1)O2 (stereo not drawn) | > 2160 nM (inactive)
Cc1cccc(CN2CCN(S(=O)(=O)c3ccccc3[N+](=O)[O-])CC2)c1 | > 5080 nM (inactive)
Cc1ccc(C)n1C(Cc1c[nH]c2ccccc12)C(=O)O (stereo not drawn) | 680 nM

Compound | IC50
CCOC(=O)C1C2NC(=S)N(CC)C1(C)Oc1ccc(Br)cc12 (stereo not drawn) | > 6310 nM (inactive)
Cc1cc(OCCOCCN2CCNCC2)ccc1Cl | > 6480 nM (inactive)
COC(=O)CSc1nnc(-c2ccco2)n1Cc1ccco1 | 99.3 nM
COc1cc(OC)c(C(=O)OC2CCCC2=O)cc1OC (stereo not drawn) | inactive
O=C(O)CCC(NCc1ccco1)C(=O)O (stereo not drawn) | 806 nM
Cc1occc1C(=O)N/N=C/C=C/c1ccco1 | 11.2 nM
NC(=O)COC(=O)c1cc2c(s1)CCC2 | inactive
COc1cc(C)c2c(c1C=O)Oc1c(c(C)c(O)c3c1C(O)OC3=O)OC2=O (stereo not drawn) | 468 nM
CC(=O)Nc1ccc(N2C(=O)c3ccccc3C2(O)Cc2ccccc2)cc1 (stereo not drawn) | > 6480 nM (inactive)
COC(=O)c1c(NC(=O)c2ccc([N+](=O)[O-])o2)sc(Cc2ccc3c(c2)OCO3)c1C | inactive
CCC(C)NCCOc1cccc(Br)c1 (stereo not drawn) | > 6480 nM (inactive)
O=C1N[C@@H](Cc2c[nH]c3ccccc23)C(=O)N2CCN(C(=O)NC3CCCCC3)C[C@H]12 | inactive
COc1ccc2c(c1)CC(C(=O)Nc1ccc(-c3cn[nH]c3)cc1OCC#N)CO2 (stereo not drawn) | inactive
O=C(O)c1cc(C(=O)O)cc(-c2ccc(/C=N\n3cnnc3)o2)c1 | inactive
S=c1[nH]nc(-c2cccnc2)n1/N=C/C=C/c1ccco1 | 472 nM
COc1cc(C=Nc2ccc(N(C)C)cc2)cc(I)c1O | > 6480 nM (inactive)
CN(C)[C@@H]1C(=O)C(C(=O)NCN2CCCC2)=C(O)[C@@]2(O)C(=O)C3=C(O)c4c(O)cccc4[C@@](C)(O)[C@H]3C[C@@H]12 | 425 nM
CN1C(=O)[C@H]2CN(C(=O)NC3CCCCC3)CCN2C(=O)[C@@H]1CO | > 6480 nM (inactive)
NC(=O)c1ccc(N=Cc2cc3c(cc2[N+](=O)[O-])OCO3)cc1 | inactive
CCN(CC)c1ncnc2c1ncn2[C@@H]1O[C@H](COP(=O)(O)OP(=O)(O)C(Br)(Br)P(=O)(O)O)C(O)[C@@H]1O (stereo partly drawn) | 175 nM
O=C1N[C@@H](Cc2ccccc2)C(=O)N2CCN(C(=O)NCc3ccccc3)C[C@H]12 | > 6480 nM (inactive)
O=C(COC(=O)COc1ccc(Cl)cc1)NCc1ccco1 | > 2400 nM (inactive)
COC(=O)CSc1nnc(-c2cnccn2)n1C | > 6480 nM (inactive)
O=C(c1ccc2nc(-c3ccco3)c(-c3ccco3)nc2c1)N1CCSCC1 | 222 nM
O=C(Nc1ccc(N2CCOCC2)cc1)c1cccc(Nc2ccncn2)n1 | inactive
